In ChEMBL document CHEMBL3507680, “University of Dundee, Gates Library screen for HepG2 cell viability”:

Experiment: Human HepG2 cell viability assay in 384 well format
Format: toxicity, cell-based
Parameters: dose 125 nL, time 70.5 hour; cytotoxicity at 70.5 h: concentration not given beside the values
Settings: HepG2 cells, read-out: Inhibition

Row | Compound | cytotoxicity at 70.5 h [%]
1 | Cc1nc(C)n(CC2CCCN2Cc2ncc(-c3ccccc3)o2)n1 (configuration not stated) | -2.3
2 | CSCC(=O)N[C@H]1CC[C@H](Nc2nccc(-c3cccnc3)n2)C1 | 16.3
3 | Cc1noc(C)c1-c1n[nH]c2c1CN(S(=O)(=O)c1cccnc1)CC2 | -6.84
4 | O=S1(=O)C[C@@H]2[C@H](C1)N(Cc1cc(F)cc(F)c1)CCN2CCO | -1.64
5 | CCS(=O)(=O)N(C)C(=O)c1cc(C)n(-c2cccc(OC)c2)c1C | 27.9
6 | Cn1cc(Nc2cccc(C(=O)N(CC(N)=O)C3CCCC3)c2)cn1 | -3.71
7 | CCc1nc2ccccc2n1C(CC)C(=O)N(C)CCc1noc(C)n1 (configuration not stated) | -20.6
8 | CC(C)n1ncc2cc(NC(=O)N3CCSCC3)cnc21 | -3.2
9 | Cc1ccnc(NCc2cccc(OCCN3CCOCC3)c2)n1 | 32.7
10 | O=C(C1CC1)N1CC2(CCNCC2)C1 | -8.48
11 | CN(C)c1ccccc1C(=O)N1C[C@@H](CN2CCCCC2)[C@@H](CO)C1 | -3.58
12 | Cc1nc(CC2CCN(C(=O)C(c3ccccc3C)N(C)C)CC2)no1 (configuration not stated) | -13.1
13 | CN(c1c(F)cccc1F)S(=O)(=O)c1cc2c(c(C(=O)O)c1)OCCO2 | 9.94
14 | O=C(NC1CCC1)[C@@H]1C[C@@H]2CCN(Cc3cccs3)C[C@@H]2O1 | 7.52
15 | Cc1cccc(CN2C[C@@H]3CN(C(=O)c4cnccn4)C[C@@H]3C2=O)c1 | -2.3
16 | CCc1nccn1CC(=O)Nc1cccc(C(=O)N(C)C)c1 | 7.42
17 | CN1CCC(Oc2ccc(-n3ccnc3-c3nccn3C)cc2)CC1 | -8.7
18 | CC(C)N1C(=O)CC(N2CCN(c3ccc(F)cc3)CC2)C1=O (configuration not stated) | 6.65
19 | CC(NC1CCN(CCS(C)(=O)=O)CC1)c1cnn(C(C)C)c1 (configuration not stated) | -10.2
20 | CC(=O)N1CCCC1c1nccnc1NCc1cccnc1 (configuration not stated) | -8.19
21 | O=C(NC[C@@]1(COc2cnccn2)C[C@@H](O)[C@@H](O)C1)C1CCOCC1 | -1.95
22 | CS(=O)(=O)CCOc1nc(-c2ccccc2Cl)no1 | -102
23 | CCCc1cncnc1N1CCC2(CCC(=O)N(CCOC)C2)CC1 | 13.2

Row | Compound | cytotoxicity at 70.5 h [%]
24 | CCOc1ccc(CN2C(=O)CC(C)(C(C)C)C2=O)nc1 (configuration not stated) | 0.245
25 | Cc1cnn(CC2CN(Cc3nc(C4CC4)no3)CCO2)c1 (configuration not stated) | -6.98
26 | Cc1cccc(N2CCN(c3ccn4c(=O)[nH]nc4n3)CC2)c1C | 3.43
27 | CC(=O)Nc1cccc(OCCNC(=O)N(C)Cc2ccncc2)c1 | 20.7
28 | O=C(c1cccc2ncccc12)N1CCCN(c2cccnn2)CC1 | -11.1
29 | CN(Cc1ccccn1)C1CC2(CCN(Cc3ccccn3)CC2)C1 | -10.9
30 | CCCN(CCC)Cc1nnsc1Cl | -13.7
31 | CCCC(C)NCc1cnc(-c2cccc(C)c2)nc1 (configuration not stated) | 1.72
32 | Cc1nccn1[C@@H]1CC[C@@H](N(C)S(=O)(=O)c2ccc(F)cc2)[C@H]1O | -3.16
33 | Cc1cc(N2CCC(n3cc(CN4CCC[C@@H]4CO)nn3)CC2)ccn1 | -8.62
34 | Cc1nccn1-c1ccc(C(C)NCc2cccn2C)cc1 (configuration not stated) | -4.2
35 | CN(C)C(=O)c1cnc2n1CCN(Cc1cccnc1)C2 | 4.75
36 | Cc1cc(-c2cnc(N3CCNC(=O)C3)nc2-c2ccc(C)o2)on1 | -16.3
37 | CCc1cnc(C)nc1NCCN1CCCC(C(N)=O)C1 (configuration not stated) | 0.301
38 | Cc1ccc(C(=O)N(C)CC(=O)N2CCCC2)c(C)c1 | -16
39 | O=C(NC1CCN(c2ncccc2F)C1)c1cccc(-n2ccnn2)c1 (configuration not stated) | -6.27
40 | Cc1nc(C)n(C2CCCN(C(=O)c3csc(CC(C)C)n3)C2)n1 (configuration not stated) | -13.9
41 | OC1(CNCCc2nc3c(s2)CCCC3)CNCCOC1 (configuration not stated) | 4.06
42 | COCCOc1ccccc1C(=O)N1CCCCC1c1nccs1 (configuration not stated) | 50.2
43 | CC(C)(CNC1CCCN(Cc2ccccn2)C1)CN1CCOCC1 (configuration not stated) | -12.6
44 | CCC1=N[C@@]2(CC[C@@H]3CN(C(=O)NCC(C)C)C[C@@H]32)C(=O)N1CC1CC1 | -2.4
45 | COC(=O)[C@H](CCSC)NC(=O)Cn1ccc2c(Cl)cccc21 | -17.2
46 | CCCn1[nH]cc/c1=N\C(=O)CN1CCc2cnc(C(C)C)nc2C1 | -3.5

Row | Compound | cytotoxicity at 70.5 h [%]
47 | COCC(=O)N1CCN(C(=O)CCc2ccsc2)CC1 | -3.39
48 | CCS(=O)(=O)N1CCO[C@H]2[C@H](OCC3CCCC3)CC[C@@H]21 | -13.9
49 | Cc1nn(C)c2cnn(CC(=O)NCc3cccs3)c12 | -8.64
50 | CC(C)c1nnc2n1CCN(Cc1cc(Cl)c3c(c1)OCCO3)C2 | -4.04
51 | Cc1occc1-c1nc(-c2cccc(CN3CCOCC3)c2)no1 | 0.585
52 | Cc1nn(C)cc1C(=O)NCc1csc(C2CC2)n1 | 18.9
53 | Cn1cc(CNC2CCOCC2)c(-c2cc3ccccc3o2)n1 | -5.58
54 | CCc1nc(N2CCN(c3ncccn3)CC2)c2cnn(C)c2n1 | -5.59
55 | COc1ccnc(N2CCN(C(=O)c3cc(C4CC4)[nH]n3)CC2)n1 | -5.93
56 | CCCC(=O)NC1CCN(c2ccccc2S(=O)(=O)CC)CC1 | 17.6
57 | COc1ccc(C)cc1CCNS(=O)(=O)c1ccc2c(c1)CCC(=O)N2 | -18.5
58 | c1ccc(CN2CCC(CCNc3ncnc4c3CCNCC4)C2)cc1 (configuration not stated) | -2.61
59 | CCC1=N[C@@]2(CC[C@@H]3CN(S(=O)(=O)CC)C[C@@H]32)C(=O)N1CC | -2.37
60 | CC(C)(C)c1cc(NC(=O)NCCc2nnc3n2CCC3)c(C#N)s1 | 8.88
61 | Cc1cnn(CC(C)NCC(=O)NCCOc2ccccc2)c1 (configuration not stated) | 11.7
62 | COC(=O)CN1CCN(c2nc3c(s2)c(C)nn3C)C(C)C1=O (configuration not stated) | 3.44
63 | Cc1ncnc2c1CCN(c1ccccn1)CC2 | -14
64 | Cc1cc(Nc2cnccn2)cc(C2CCCN2)n1 (configuration not stated) | 12.2
65 | N#Cc1c(Cl)nsc1NCc1ccc(N2CCC(CO)CC2)cc1 | -0.689
66 | CCn1c(Nc2ccccc2OC)nc2c(C)nn(C)c2c1=O | 14
67 | Brc1cc2c(cc1CN1CCC(N3CCCCC3)CC1)OCCO2 | -2.82
68 | COC(=O)c1ccc(C(=O)NCC2(O)CCOCC2)cc1 | 33.7
69 | CCCN1C(=O)CC2(CCCNC2)C1=O (configuration not stated) | -14.9

Row | Compound | cytotoxicity at 70.5 h [%]
70 | COC(=O)c1ccc(NCc2csc(C)n2)cc1Cl | -6.69
71 | COc1cc(N2C[C@H]3OCC[C@H]3[C@H](C(=O)NC3CC3)C2)ncn1 | -4.39
72 | CCCc1nc(C(=O)N2CCN(C(=O)c3ccc(OC)cc3)CC2)cs1 | -5.88
73 | NCCn1cc(C(=O)N2CCCCCC2c2ccco2)nn1 (configuration not stated) | -8.2
74 | CCCn1nnnc1CN(C)C(C)c1ccc(C)cc1 (configuration not stated) | -5.6
75 | CCCc1cc(C(=O)N(C)Cc2cnc3ccccc3n2)n(C)n1 | -4.51
76 | CN(C)S(=O)(=O)N1CC[C@]2(C[C@H](OCc3ccncc3)CO2)C1 | -0.865
77 | CCOc1ccc2[nH]c(=O)c(CN3CCCC3c3ccccn3)cc2c1 (configuration not stated) | -11.8
78 | CCOc1cccc(COC(=O)c2cc(C)on2)n1 | 1.07
79 | Cc1c(C)n(CC(O)CN2CCCCCC2)c2c(Cl)cccc12 (configuration not stated) | 20.5
80 | Cc1nn(C)c(C)c1-c1c(-c2ccccc2)ncn1[C@H](CO)C(=O)O | -4.59
81 | Cc1ccc(C(=O)N2CCC(Oc3c(C)cccc3C)CC2)c(=O)[nH]1 | 0.338
82 | CC1CCN(S(=O)(=O)NCCCn2cncn2)CC1 | -0.69
83 | Cc1ccc(N2CCCC(NCc3ccc(C)o3)C2)nn1 (configuration not stated) | -7.71
84 | CNS(=O)(=O)c1ccc(CNC(=O)NCC2CCC2)cc1 | -8.5
85 | COc1ccc(CN2CCCC2)cc1Oc1ccc(NC(C)=O)cc1 | -3.35
86 | CCOc1ccc(CN2CCCC(c3nn(C)c(=O)n3CC)C2)cn1 (configuration not stated) | -6.89
87 | Cn1ccnc1-c1cccc(NC(=O)NCCCO)c1 | 1.83
88 | Cc1ccc2c(n1)N(C)CCN(C(=O)NC1CC1)C2 | 25.2
89 | CNS(=O)(=O)c1ccc(C(=O)Nc2ccc3c(c2)C(=O)NC3)cc1 | 1.61
90 | N#CCC(=O)NCc1nnc2n1CCN(Cc1cccs1)C2 | -6.57
91 | Cc1ncsc1C(=O)N(C)Cc1ccccc1 | -4.43
92 | N#Cc1ccccc1OCCN1CCCC1Cn1cncn1 (configuration not stated) | 3.66

Row | Compound | cytotoxicity at 70.5 h [%]
93 | COCCN1CCO[C@@H]2CN(Cc3ccc(C)o3)C[C@@H]2C1 | 1.59
94 | Cc1cn(-c2ccccc2)nc1NS(=O)(=O)c1ccc(C(=O)O)cc1F | -18
95 | Cc1cc(CN(C)C(=O)CN2CCCCCC2=O)no1 | -10.3
96 | CCN(CC)c1ncc2c(c1C(=O)O)CCN(C1CCOC1)C2 (configuration not stated) | 3.75
97 | Cc1oc(-c2ccco2)nc1CNC1CCCN(c2cccnn2)C1 (configuration not stated) | -9.89
98 | CC(=O)N1CCCC2(CCN(Cc3ccc(Cl)c(C(F)(F)F)c3)C2)C1 (configuration not stated) | -5.69
99 | Cn1c(NC(=O)CNC(=O)C2CC2)nc2cc(Cl)ccc21 | -7.94
100 | O=c1[nH]c(COc2cccc(F)c2)nc2c1CCNC2 | -17
101 | COc1ccccc1CN(CCCn1ccnc1)CC1CCOC1 (configuration not stated) | -4.43
102 | O=C(NC1CC2(CCN(CCO)CC2)c2ccccc21)c1ccno1 (configuration not stated) | 17.6
103 | COc1ccc(C)cc1C(=O)N1C[C@@H](CN(C)CCO)[C@@H](CO)C1 | 0.0463
104 | CNc1cccc(C2CCCN(C(=O)c3cscn3)C2)n1 (configuration not stated) | -8.52
105 | Cn1cc(CN2CCc3c(nc(-c4ccccn4)[nH]c3=O)C2)cn1 | -23.4
106 | O=C(CN1CCCc2sccc2C1=O)NC1CCc2nccn2C1 (configuration not stated) | 23.3
107 | CN(Cc1ccc2c(c1)OCCO2)C(=O)Cn1ccccc1=O | -5.02
108 | CCCS(=O)(=O)N1C[C@H]2C[C@H](C(=O)N(C)C)[C@@H](C1)O2 | -13.7
109 | Cn1cccc1C(=O)NCc1cn2c(n1)CN(C(=O)c1ccsc1)CC2 | -8.13
110 | Cc1cnc(C(=O)N2CCCCC2c2ccc(CN(C)C)cc2)cn1 (configuration not stated) | 8.8
111 | COCC1CN(S(=O)(=O)N(C)C)Cc2cnn(CC3CCCC3)c21 (configuration not stated) | -5.7
112 | CCN1C(=O)CC(N(C)Cc2nc3ccccc3c(=O)[nH]2)C1=O (configuration not stated) | -7.75
